Measured values as given in ChEMBL document CHEMBL1201862, “PubChem BioAssay data set” (2004).
Values joined by “and” are separate entries in the source; they are usually repeats but may differ in a detail not shown here. Equal entries are not always repeated.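 Growth conditions: 96-well plates. Treatment: test compound, 48 hours, 5 concentrations. Analysis: linear interpolation between bracketing concentrations; unreached endpoints set to highest concentration. GI50 marks 50% less growth.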 Active and inactive are the calls of the source. No stated cut-off is given here; in the data, active = GI50 up to about 1.1 µM and inactive = higher. Where a SMILES comes first, the peptide text is derived from it. The star is where a group is joined. Cbz = O=C(OCc1ccccc1)*

Tests used:
Test in all cases: DTP human tumour cell line panel, 48 h
CAKI-1 = test system: CAKI-1
HCC 2998 = test system: HCC 2998
HCT-116 = test system: HCT-116
K562 = test system: K562
KM12 = test system: KM12
M14 = test system: M14
MCF7 = test system: MCF7
NCI-H226 = test system: NCI-H226
NCI-H522 = test system: NCI-H522
OVCAR-3 = test system: OVCAR-3
OVCAR-8 = test system: OVCAR-8
PC-3 = test system: PC-3
SF-295 = test system: SF-295
SK-MEL-2 = test system: SK-MEL-2
SNB-19 = test system: SNB-19
SR = test system: SR
U-251 = test system: U-251
UO-31 = test system: UO-31
RXF 393 = test system: RXF 393

Measured: GI50

COC(=O)c1ccccc1/C=C1\Cc2ccc3c(c2C1=O)CCCC3
inactive: CAKI-1 > 100 µM | HCC 2998 > 100 µM | HCT-116 > 100 µM | K562 > 100 µM | KM12 > 100 µM | M14 > 100 µM | MCF7 > 100 µM | NCI-H226 > 100 µM | NCI-H522 > 100 µM | OVCAR-3 > 100 µM | OVCAR-8 > 100 µM | PC-3 > 100 µM | SF-295 > 100 µM | SK-MEL-2 > 100 µM | SNB-19 > 100 µM | SR > 100 µM | U-251 > 100 µM | UO-31 > 100 µM

O/N=C1/CCCCCC1NO (configuration not stated)
inactive: CAKI-1 > 100 µM | HCC 2998 > 100 µM | HCT-116 > 100 µM | KM12 > 100 µM | M14 > 100 µM | MCF7 > 100 µM | NCI-H226 > 100 µM | OVCAR-3 > 100 µM | OVCAR-8 > 100 µM | PC-3 > 100 µM | RXF 393 > 100 µM | SF-295 > 100 µM | SK-MEL-2 > 100 µM | SNB-19 > 100 µM | SR > 10 µM | U-251 > 100 µM | UO-31 > 100 µM

COc1ccc(-n2c(C)nc3ccc(NC4OCC(O)C(O)C4O)cc3c2=O)cc1 (configuration not stated)
inactive: HCC 2998 > 100 µM | HCT-116 18.6 µM and 19.4 µM | K562 31.3 µM and 30.8 µM | MCF7 43.5 µM and 48.4 µM | NCI-H226 37.3 µM and 37.6 µM | NCI-H522 24.6 µM and 22.3 µM | OVCAR-3 > 100 µM | OVCAR-8 23.3 µM and 28.6 µM | PC-3 > 100 µM | RXF 393 22.7 µM and 30.1 µM | SF-295 > 100 µM | SK-MEL-2 > 100 µM | SNB-19 > 100 µM | SR 31.1 µM and 26.1 µM | U-251 60 µM and 49.2 µM | UO-31 > 100 µM

O=C1c2ccccc2C(=O)N1CC1(C(=O)O)NCCS1(=O)=O (configuration not stated)
inactive: CAKI-1 > 100 µM | HCT-116 > 100 µM | K562 > 100 µM | KM12 > 100 µM | M14 > 100 µM | MCF7 > 100 µM | NCI-H226 > 100 µM | NCI-H522 > 100 µM | OVCAR-3 > 100 µM | OVCAR-8 > 100 µM | PC-3 > 100 µM | RXF 393 > 100 µM | SF-295 > 100 µM | SK-MEL-2 > 100 µM | SNB-19 > 100 µM | SR > 100 µM | U-251 > 100 µM | UO-31 > 100 µM

C/C(CC/C(C)=N/O)=N\O
inactive: CAKI-1 > 100 µM | HCC 2998 > 100 µM | HCT-116 > 100 µM | K562 > 100 µM | KM12 > 100 µM | M14 > 100 µM | MCF7 > 100 µM | NCI-H226 > 100 µM | NCI-H522 > 100 µM | OVCAR-3 > 100 µM | OVCAR-8 > 100 µM | PC-3 > 100 µM | RXF 393 > 100 µM | SF-295 > 100 µM | SK-MEL-2 > 100 µM | SNB-19 > 100 µM | U-251 > 100 µM | UO-31 > 100 µM

Cc1cc(OP2(=O)NCc3ccncc3O2)ccc1Cl (configuration not stated)
inactive: CAKI-1 > 100 µM | HCC 2998 > 100 µM | HCT-116 > 100 µM | K562 > 100 µM | KM12 > 100 µM | M14 > 100 µM | MCF7 > 100 µM | NCI-H226 > 100 µM | OVCAR-3 > 100 µM | OVCAR-8 > 100 µM | PC-3 > 100 µM | RXF 393 > 100 µM | SF-295 > 100 µM | SK-MEL-2 > 100 µM | SNB-19 > 100 µM | SR > 100 µM | U-251 > 100 µM | UO-31 > 100 µM

N#Cc1nc(C2CCC(=O)O2)oc1N (configuration not stated)
inactive: CAKI-1 > 100 µM | HCT-116 83 µM | K562 > 100 µM | KM12 > 100 µM | M14 > 100 µM | MCF7 > 100 µM | NCI-H226 > 100 µM | OVCAR-3 > 100 µM | OVCAR-8 > 100 µM | PC-3 > 100 µM | RXF 393 > 100 µM | SF-295 > 100 µM | SK-MEL-2 > 100 µM | SNB-19 > 100 µM | SR > 100 µM | U-251 > 100 µM | UO-31 > 100 µM

CCOC(=O)C(CC(=O)OC)NC(=O)C(CC(=O)OC)NC(=O)C(CC(=O)OC)NC(=O)C(CC(=O)OC)NC(=O)OCc1ccccc1 (configuration not stated) (Cbz-D(OMe)D(OMe)D(OMe)D(OMe)-OEt; configuration not given here)
inactive: HCC 2998 > 100 µM | HCT-116 > 100 µM | K562 > 100 µM | KM12 > 100 µM | M14 > 100 µM | MCF7 > 100 µM | NCI-H226 > 100 µM | OVCAR-8 > 100 µM | PC-3 > 100 µM | RXF 393 > 100 µM | SK-MEL-2 > 100 µM | SNB-19 > 100 µM | SR > 100 µM | U-251 > 100 µM | UO-31 > 100 µM
